Among the data in patent publication EP0970046B1, “N-HYDROXY-2-(ALKYL, ARYL, OR HETEROARYL SULFANYL, SULFINYL OR SULFONYL)-3-SUBSTITUTED ALKYL, ARYL OR HETEROARYLAMIDES AS MATRIX METALLOPROTEINASE INHIBITORS” (Wyeth Holdings Corporation, priority 1997, dated 1998) are inhibition and IC50 values, retold here.

Assay type in all cases: biochemical
Assay [1] has as its target T1, MMP 1 (Homo sapiens, UniProt P03956).
T1 construct: human recombinant fibroblast collagenase (truncated, mw= 18,828, WAR, Radnor)
T1 sequence (P03956 100-269 limits assumed): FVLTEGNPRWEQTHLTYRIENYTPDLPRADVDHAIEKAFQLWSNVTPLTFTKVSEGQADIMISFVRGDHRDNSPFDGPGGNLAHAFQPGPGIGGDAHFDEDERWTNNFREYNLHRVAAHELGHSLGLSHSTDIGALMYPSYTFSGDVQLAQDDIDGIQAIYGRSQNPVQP
The assay is described as follows: In Vitro Collagenase Assay. The following applies: for inhibition at 1 µM: read-out: MMP 1 % inhibition at 1 micromolar, 1 micromolar. Put shortly: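 Collagenase (5 nM final) cleaves the quenched fluorogenic peptide Dnp-Pro-Cha-Gly-Cys(Me)-His-Ala-Lys(NMa)-NH2 (10 µM final) in HCBC buffer. Solvent is below 1.0%, and the reaction is started with substrate. Rate is taken from the fluorescence slope (r^2 >0.85), and drug-treated rates are compared with control by Dunnett's test.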

Assay [2] concerns the target T2, MMP 9 (Homo sapiens, UniProt P14780).
T2 construct: from tissue; host or cells: human neutrophils
The assay is described as follows: In Vitro Gelatinase Assay. The following applies: human neutrophil gelatinase B; for inhibition at 1 µM: read-out: MMP 9 % inhibition at 1 micromolar, 1 micromolar; for IC50: read-out: MMP 9 IC 50. Put shortly: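 Human MMP-9 cleaves thiopeptide Ac-Pro-Leu-Gly(2-mercapto-4-methyl-pentanoyl)-Leu-Gly-OEt, with the released thiol reacting with DTNB. Substrate and DTNB were diluted together to 1 mM in 50 mM HEPES pH 7.5, 5 mM CaCl2. Rate came from the OD405 slope (r^2 >0.85), compared with control by Dunnett's test.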

Assay [3] addresses MMP 13 (Homo sapiens, UniProt P45452). As to the kind of experiment: MMP 13 inhibition (IC50 / manual assay; method not described). The following applies: for inhibition at 1 µM: read-out: MMP 13 % inhibition at 1 micromolar.
For assay [4], the target named is T3, TACE (Homo sapiens, UniProt P78536).
T3 construct: purchased Immunex
The assay is described as follows: Procedure for Measuring TACE Inhibition. The following applies: for inhibition at 1 µM: read-out: TACE % inhibition at 1 micromolar; for IC50: read-out: TACE IC 50. Put shortly:
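Single-concentration screen: test compound at 1 µM final, 10-min room-temperature preincubation with 1 µg/mL protease in Tris pH 7.4 buffer containing glycerol. Initial rate from linear fluorescence increase (340/420 nm) over 10 min after adding 100 µM peptidyl substrate; significance versus control rate by Dunnett's test.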

Where [5] appears, read: human recombinant fibroblast collagenase.
Setting [6] is: human recombinant fibroblast collagenase, read-out: MMP 1 IC 50.

Like-named read-outs stand apart in the source and are kept apart here.

T3 sequence (P78536 215-824): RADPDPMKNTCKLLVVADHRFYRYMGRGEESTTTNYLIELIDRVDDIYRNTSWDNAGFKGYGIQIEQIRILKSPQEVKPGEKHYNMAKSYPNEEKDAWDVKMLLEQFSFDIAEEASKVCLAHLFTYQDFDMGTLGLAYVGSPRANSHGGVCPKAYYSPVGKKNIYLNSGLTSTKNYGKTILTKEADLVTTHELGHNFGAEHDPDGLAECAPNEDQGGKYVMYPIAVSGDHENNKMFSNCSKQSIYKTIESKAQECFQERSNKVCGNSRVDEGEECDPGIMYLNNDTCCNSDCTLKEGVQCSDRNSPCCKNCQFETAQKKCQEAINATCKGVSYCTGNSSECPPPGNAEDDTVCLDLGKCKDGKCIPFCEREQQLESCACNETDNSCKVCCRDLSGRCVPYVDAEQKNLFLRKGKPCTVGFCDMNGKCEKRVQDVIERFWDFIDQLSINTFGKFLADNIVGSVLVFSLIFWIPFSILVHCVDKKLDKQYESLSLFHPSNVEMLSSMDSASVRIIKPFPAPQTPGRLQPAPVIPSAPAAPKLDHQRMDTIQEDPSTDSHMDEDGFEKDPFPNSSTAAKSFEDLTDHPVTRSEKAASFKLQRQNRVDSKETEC
T2 sequence (P14780 94-707): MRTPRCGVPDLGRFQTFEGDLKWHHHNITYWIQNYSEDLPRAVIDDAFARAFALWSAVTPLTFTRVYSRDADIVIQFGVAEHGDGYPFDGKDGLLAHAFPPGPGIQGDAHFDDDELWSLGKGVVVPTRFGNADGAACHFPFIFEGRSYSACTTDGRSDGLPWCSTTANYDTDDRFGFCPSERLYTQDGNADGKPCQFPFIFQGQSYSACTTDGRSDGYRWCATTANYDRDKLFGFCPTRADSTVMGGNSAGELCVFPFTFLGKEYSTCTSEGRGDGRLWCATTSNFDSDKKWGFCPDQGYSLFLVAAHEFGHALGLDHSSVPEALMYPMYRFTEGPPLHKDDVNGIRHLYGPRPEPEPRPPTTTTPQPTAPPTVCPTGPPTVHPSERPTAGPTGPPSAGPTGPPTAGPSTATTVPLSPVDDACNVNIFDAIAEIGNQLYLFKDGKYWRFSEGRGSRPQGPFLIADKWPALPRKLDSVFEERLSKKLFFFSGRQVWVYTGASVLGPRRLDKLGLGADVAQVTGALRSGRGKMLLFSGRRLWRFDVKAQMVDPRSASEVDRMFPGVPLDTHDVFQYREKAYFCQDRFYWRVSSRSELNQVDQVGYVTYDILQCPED

One may read the inhibition as the percentage by which the read-out fell short of the control. On to `COc1ccc(S(=O)(=O)C(CCN(C(C)C)C(C)C)(Cc2ccccc2)C(=O)NO)cc1` (stereo not drawn) [Example 64, 2-Benzyl-4-diisopropylamino-N-hydroxy-2-(4-methoxy-benzenesulfonyl)-butyramide], for which the inhibition at 1 µM in assay [1] (setting [5]) came to 40.9%; in assay [2] it was 25.6%; in assay [3], 36.7%; in assay [4], 29.7%.

As to `COc1ccc(S(=O)(=O)C(Cc2cccnc2)(CC2CCCCC2)C(=O)NO)cc1` (stereo not drawn) [Example 65, 3-Cyclohexyl-N-hydroxy-2-(4-methoxy-benzenesulfonyl)-2-pyridin-3-ylmethyl-propionamide], the IC50 worked out at 1 µM in assay [1] (setting [6]), 0.063 µM in assay [2] and 0.013 µM in assay [3] (read-out: MMP 13 IC 50). Further, in assay [4], the inhibition at 1 µM was found to be 42.2%.

In the case of `COc1ccc(S(=O)(=O)C(Cc2cccnc2)(CC(C)C)C(=O)NO)cc1` (stereo not drawn) [Example 66, 2-(4-Methoxy-benzenesulfonyl)-4-methyl-2-pyridin-3-ylmethyl-pentanoic acid hydroxyamide], the figures for the IC50 in assay [1] (setting [6]), in assay [2] and in assay [3] (read-out: MMP 13 IC 50) were 1.6 µM, 0.131 µM and 0.226 µM, respectively. For the same compound, in assay [4], the inhibition at 1 µM amounted to 42.3%.

Turning to `CCCCCC#CCC(CC#CCCCCC)(C(=O)NO)S(=O)(=O)c1ccc(OC)cc1` [Example 71, 2-(4-methoxy-benzenesulfonyl)-2-oct-2-ynyl-dec-4-ynoic acid hydroxyamide], the IC50 in assay [1] (setting [6]) was 1 µM; in assay [2], 0.063 µM; in assay [3] (read-out: MMP 13 IC 50), 0.013 µM. The inhibition at 1 µM in assay [4] worked out at 42.2%.

On to `CC#CCC(CC#CC)(C(=O)NO)S(=O)(=O)c1ccc(OC)cc1` [Example 72, 2-(4-Methoxy-benzenesulfonyl)-2-but-2-ynyl-hex-4-ynoic acid hydroxyamide], for which the IC50 in assay [1] (setting [6]) worked out at 0.117 µM; in assay [2], 0.011 µM; in assay [3] (read-out: MMP 13 IC 50), 0.001 µM. In addition, the inhibition at 1 µM in assay [4] turned out to be 51.6%.

As to `CCCCCC#CCC(Cc1cccnc1)(C(=O)NO)S(=O)(=O)c1ccc(OC)cc1` (stereo not drawn) [Example 74, 2-(4-Methoxy-benzenesulfonyl)-2-pyridin-3-ylmethyl-dec-4-ynoic acid hydroxyamide], the IC50 in assay [1] (setting [6]) stood at 0.138 µM; in assay [2] it was 0.0092 µM; in assay [3] (read-out: MMP 13 IC 50), 0.0043 µM. The inhibition at 1 µM in assay [4] was 47.9%.

On to `C#CCC(Cc1cccnc1)(C(=O)NO)S(=O)(=O)c1ccc(OC)cc1` (stereo not drawn) [Example 75, 2-(4-Methoxy-benzenesulfonyl)-2-pyridin-3-ylmethyl-pent-4-ynoic acid hydroxyamide], for which the IC50 in assay [1] (setting [6]) was found to be 0.672 µM; in assay [2] it was 0.0834 µM; in assay [3] (read-out: MMP 13 IC 50), 0.0327 µM. Moreover, the inhibition at 1 µM in assay [4] stood at 23.8%.

In the case of `CCCCCC(Sc1ccc(OC)cc1)C(=O)NO` (stereo not drawn) [Example 80, 2-(4-methoxy-phenylsulfanyl)-heptanoic acid hydroxyamide], the inhibition at 1 µM stood at 22.1% in assay [1] (setting [5]), 26% in assay [2] and 63.6% in assay [3]. Also, the IC50 in assay [4] was determined as 0.191 µM.

For the compound `COc1ccc(S(=O)(=O)C2(C(=O)NO)CCN(Cc3ccccc3)CC2)cc1` [Example 83, 1-Benzyl-4-(4-methoxy-benzenesulfonyl)-piperidine-4-carboxylic Acid hydroxyamide], the IC50 in assay [1] (setting [6]) amounted to 0.492 µM; in assay [2], 0.0102 µM; in assay [3] (read-out: MMP 13 IC 50), 0.002 µM; in assay [4], 0.229 µM.

In the case of `COc1ccc(S(=O)(=O)C2(C(=O)NO)CCN(Cc3cccc(OC)c3)CC2)cc1` [Example 84, 4-(4-methoxy-benzenesulfonyl)-1-(3-methoxy-benzyl)-piperidine-4-carboxylic acid hydroxyamide], the IC50 in assay [1] (setting [6]) was determined as 0.519 µM; in assay [2], 0.0088 µM; in assay [3] (read-out: MMP 13 IC 50), 0.002 µM; in assay [4], 0.213 µM.

`COc1ccc(S(=O)(=O)C2(C(=O)NO)CCN(Cc3ccc(Cl)c(Cl)c3)CC2)cc1` [Example 85, 1-(3,4-dichlorobenzyl) -4-(4-methoxy-benzenesulfonyl)-piperidine-4-carboxylic acid hydroxamide]: the IC50 in assay [1] (setting [6]) was 0.45 µM; in assay [2], 0.0058 µM; in assay [3] (read-out: MMP 13 IC 50) it was 0.0015 µM; in assay [4], 0.115 µM.

`COc1ccc(S(=O)(=O)C2(C(=O)NO)CCN(Cc3ccc(C)cc3)CC2)cc1` [Example 86, 4-(4-methoxy-benzenesulfonyl)-1-(4-methylbenzyl)-piperidine-4-carboxylic acid hydroxamide]: the IC50 in assay [1] (setting [6]) came to 0.494 µM; in assay [2], 0.0168 µM; in assay [3] (read-out: MMP 13 IC 50), 0.0015 µM; in assay [4], 0.222 µM.

As for `COc1ccc(S(=O)(=O)C2(C(=O)NO)CCN(CC=C(C)C)CC2)cc1` [Example 89, 4-(4-methoxy-benzene-sulfonyl)-1-(3-methyl-but-2-enyl)piperidine-4-carboxylic acid hydroxamide], the IC50 in assay [1] (setting [6]) worked out at 1.39 µM; in assay [2] it was 0.0386 µM; in assay [3] (read-out: MMP 13 IC 50) it was 0.007 µM. For the same compound, the inhibition at 1 µM in assay [4] came out at 49%.

Take `COc1ccc(S(=O)(=O)C2(C(=O)NO)CCN(Cc3ccc(F)cc3)CC2)cc1` [Example 99, 1-(4-Fluoro-benzyl)-4-(4-methoxy-benzenesulfonyl)-piperidine-4-carboxylic acid hydroxyamide]: the IC50 was found to be 0.656 µM in assay [1] (setting [6]), 0.0162 µM in assay [2], 0.0024 µM in assay [3] (read-out: MMP 13 IC 50) and 0.25 µM in assay [4].

With `COc1ccc(CCN2CCC(C(=O)NO)(S(=O)(=O)c3ccc(OC)cc3)CC2)cc1` [Example 102, 4-(4-methoxy-benzenesulfonyl)-1-[2-(4-methoxyphenyl)-ethyl]-piperidine-4-carboxylic acid hydroxyamide], the IC50 in assay [1] (setting [6]) worked out at 0.662 µM; in assay [2] it was 0.0337 µM; in assay [3], 0.0019 µM. The inhibition at 1 µM in assay [4] came to 53%.

As for `COc1ccc(S(=O)(=O)C2(C(=O)NO)CCN(CCCOc3ccccc3)CC2)cc1` [Example 105, 4-(4-Methoxy-benzenesulfonyl)-1-(3-phenoxy-propyl)-piperidine-4-carboxylic acid hydroxyamide], the IC50 in assay [1] (setting [6]) is 1.21 µM; in assay [2], 0.0442 µM; in assay [3] (read-out: MMP 13 IC 50), 0.0041 µM. Further, the inhibition at 1 µM in assay [4] came out at 50.2%.

With `COc1ccc(S(=O)(=O)C2(C(=O)NO)CCN(CCOc3ccccc3)CC2)cc1` [Example 107, 4-(4-methoxy-benzenesulfonyl)-1-(2-phenoxy-ethyl)-piperidine-4-carboxylic acid hydroxyamide], the IC50 in assay [1] (setting [6]) stood at 0.629 µM; in assay [2], 0.0268 µM; in assay [3] (read-out: MMP 13 IC 50), 0.0025 µM; in assay [4], 0.293 µM.

As to `COc1ccc(S(=O)(=O)C2(C(=O)NO)CCN(Cc3ccc(OCCN4CCCCC4)cc3)CC2)cc1` [Example 109, 4-(4-Methoxy-benzenesulfonyl)-1-[4-(2-piperidin-1-yl-ethoxy)-benzyl]-piperidine-4-carboxylic acid hydroxyamide], the IC50 was found to be 0.393 µM in assay [1], 0.0027 µM in assay [2], 0.0025 µM in assay [3] (read-out: MMP 13 IC 50) and 0.386 µM in assay [4].
